Experimental data published in patent publication US20200115357A1, “LIVER X RECEPTORS (LXR) MODULATORS” (Phenex-FXR GmbH, priority 2017, published 2020).

How the values were obtained:
[1] = target: T1, GST-LXRβ ligand-binding domain (Homo sapiens, UniProt P55055, DUP175-175); experiment: TR-FRETβ activity assay (LXRβ-LBD / NCoA3 coactivator peptide, prestimulated with 24(S)-25-epoxycholesterol); type: biochemical; design: key to behavior in FRET assay: ag=agonist; ia=inverse agonist; settings: for EC50: 1 μM 24(S)-25-epoxycholesterol as prestimulating agonist, read-out: FRETβ activity range (EC50); for behavior in FRET assay: agonist or inverse agonist
T1 construct: amino acids 156-461; NP009052; made in house; host or cells: E. coli
T1 sequence (P55055 with tags, fused parts or gaps DUP175-175): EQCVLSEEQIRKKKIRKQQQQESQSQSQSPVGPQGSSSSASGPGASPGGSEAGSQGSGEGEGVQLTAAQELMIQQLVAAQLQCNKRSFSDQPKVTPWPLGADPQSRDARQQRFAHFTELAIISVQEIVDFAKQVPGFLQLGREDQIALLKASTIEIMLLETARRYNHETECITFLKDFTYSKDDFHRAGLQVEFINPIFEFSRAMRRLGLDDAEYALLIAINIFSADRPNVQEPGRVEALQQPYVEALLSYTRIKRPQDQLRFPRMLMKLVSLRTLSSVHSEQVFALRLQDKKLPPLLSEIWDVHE
Summary of the method: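 E. coli-expressed GST-LXRβ LBD (aa 156-461) at 76 nM with biotinylated NCoA3 coactivator peptide (400 nM), in 240 mM KCl, BSA and Triton-X-100. Anti-GST-Tb cryptate/streptavidin-XL665 TR-FRET after 1 h equilibration at 4 °C, excitation 340 nm, emission 615 and 665 nm. Run in triplicate.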

[2] = target: T2, LXRβ ligand-binding domain (LBD) (Homo sapiens, UniProt P55055, DUP175-175); experiment: LXR Gal4 reporter transient transfection assay (M2H), Gal4β LBD; type: cell-based; settings: HEK293 cells; for EC50: read-out: M2H Gal4β LBD activity range (EC50)
T2 construct: LXRβ (amino acids 156-461); expressed in transfected cells; host or cells: HEK293
T2 sequence (P55055 with tags, fused parts or gaps DUP175-175): T1 sequence (P55055 with tags, fused parts or gaps DUP175-175)
Protocol: (§1) The tested compounds were usually dissolved, tested and stored as 20 mM stock solutions in DMSO. Since sulfonyl acetic acid derivatives tend to decarboxylate under these conditions, these stock solutions were prepared, tested and stored as 20 mM DMSO stock solutions containing 100 mM trifluoroacetic acid (5 equivalents). Sulfonyl acetic acid derivatives are shelf stable as solid at rt for long time as reported by Griesbrecht et al. (Synlett 2010:374) or Faucher et al. (J. Med. Chem. 2004; 47:18).
(§2) LXR Gal4 Reporter Transient Transfection Assays
(§3) LXRα and LXRβ activity status was determined via detection of interaction with coactivator and corepressor proteins in mammalian two-hybrid experiments (M2H). For this, via transient transfection the full length (FL) proteins of LXRα (amino acids 1-447; NP005684; SEQ ID NO:7) or LXRβ-(amino acids 1-461; NP009052; SEQ ID NO:8) or the ligand-binding domains (LBD) of LXRα (amino acids 155-447 SEQ ID NO:3) or LXRβ (amino acids 156-461; SEQ ID NO:4) were expressed from pCMV-AD (Stratagene) as fusions to the transcriptional activation domain of NFkB. As cofactors, domains of either the steroid receptor coactivator 1 (SRC1; amino acids 552-887; SEQ ID NO:5) or of the corepressor NCoR (amino acids 1903-2312 SEQ ID NO:6) were expressed as fusions to the DNA binding domain of the yeast transcription factor GAL4 (from pCMV-BD; Stratagene). Interaction was monitored via activation of a coexpressed Firefly Luciferase Reporter gene under control of a promoter containing repetitive GAL4 response elements (vector pFRLuc; Stratagene). Transfection efficiency was controlled via cotransfection of constitutively active pRL-CMV Renilla reniformis luciferase reporter (Promega). HEK293 cells were grown in minimum essential medium (MEM) with 2 mM L-glutamine and Earle's balanced salt solution supplemented with 8.3% fetal bovine serum, 0.1 mM non-essential amino acids, 1 mM sodium pyruvate, at 37° C. in 5% CO2. 3.5×10^4 cells/well were plated in 96-well cell culture plates in growth medium supplemented with 8.3% fetal bovine serum for 16-20 h to ˜90% confluency. For transfection, medium was taken off and LXR and cofactor expressing plasmids as well as the reporter plasmids are added in 30 μL OPTIMEM/well including polyethylene-imine (PEI) as vehicle. Typical amounts of plasmids transfected/well: pCMV-AD-LXR (5 ng), pCMV-BD-cofactor (5 ng), pFR-Luc (100 ng), pRL-CMV (0.5 ng). Compound stocks were prepared in DMSO, prediluted in MEM to a total volume of 120 μL, and added 4 h after addition of the transfection mixture (final vehicle concentration not exceeding 0.2%). Cells were incubated for additional 16 h, lysed for 10 min in 1× Passive Lysis Buffer (Promega) and Firefly and Renilla luciferase activities were measured sequentially in the same cell extract using buffers containing D-luciferine and coelenterazine, respectively. Measurements of luminescence were done in a BMG-Iuminometer.

[3] = target: T3, LXRα ligand-binding domain (LBD) (Homo sapiens, UniProt Q13133); experiment: LXR Gal4 reporter transient transfection assay (M2H), Gal4α LBD; type: cell-based; settings: HEK293 cells; for EC50: read-out: M2H Gal4α LBD activity range (EC50)
T3 construct: expressed in transfected cells; host or cells: HEK293
T3 sequence (Q13133 155-447): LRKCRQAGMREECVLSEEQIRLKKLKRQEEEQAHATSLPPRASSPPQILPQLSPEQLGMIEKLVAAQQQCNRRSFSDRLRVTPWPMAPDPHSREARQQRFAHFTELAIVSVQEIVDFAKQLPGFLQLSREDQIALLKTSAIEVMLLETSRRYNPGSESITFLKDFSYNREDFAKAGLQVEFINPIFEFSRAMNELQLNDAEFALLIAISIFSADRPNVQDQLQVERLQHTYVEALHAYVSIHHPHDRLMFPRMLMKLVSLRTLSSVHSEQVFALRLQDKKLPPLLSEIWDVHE
Protocol: as §1, §2, §3

Row | Structure (SMILES) | EC50 [1] [nM] | behavior in FRET assay [1] | EC50 [2] [nM] | EC50 [3] [nM] | M2H Gal4β LBD activity range (EC50) [2] | M2H Gal4α LBD activity range (EC50) [3]
1 | Cc1cc(C)c(S(=O)(=O)N(Cc2ccc(-c3cccc(CC(=O)O)c3)cc2)Cc2cccc(C(F)(F)F)c2)c(C)c1 [2/4] | 100 to 1000 | ia | < 100 | 100 to 1000 |  | 
2 | Cc1cc(C)c(S(=O)(=O)N(Cc2ccc(-c3cccc(S(=O)(=O)CCCC(=O)O)c3)cc2)Cc2ccc(C(F)(F)F)o2)c(C)c1 [7/2] | 1000 to 10000 | ia | 100 to 1000 | 100 to 1000 |  | 
3 | COc1ccc(-c2ccc(CN(Cc3ccc(C(F)(F)F)o3)S(=O)(=O)c3c(C)cc(C)cc3C)cc2)cc1C(C)(C)C(=O)O [7/9] | 1000 to 10000 | ia | < 100 | 100 to 1000 |  | 
4 | COc1ccc(C(C)(C)C(=O)O)cc1-c1ccc(CN(Cc2ccc(C(F)(F)F)o2)S(=O)(=O)c2c(C)cc(C)cc2C)cc1 [7/10] | 1000 to 10000 | ia | 100 to 1000 | 1000 to 10000 |  | 
5 | Cc1cc(C)c(S(=O)(=O)N(Cc2ccc(-c3cncc(C(C)(C)C(=O)O)c3)cc2)Cc2ccc(C(F)(F)F)o2)c(C)c1 [11/18] | 100 to 1000 | ia | < 100 | 100 to 1000 |  | 
6 | Cc1cc(C)c(S(=O)(=O)N(Cc2ccc(N3CCCC(C(C)(C)C(=O)O)C3)cc2)Cc2ccc(C(F)(F)F)o2)c(C)c1 (stereo not shown) [16/2] | > 10000 | ia | 100 to 1000 | 100 to 1000 |  | 
7 | Cc1cc(C)c(S(=O)(=O)N(Cc2ccc(C3=CS(=O)(=O)C(CC(=O)O)=C3)cc2)Cc2ccc(C(F)(F)F)o2)c(C)c1 [25/3] | 1000 to 10000 | ia | 100 to 1000 | 100 to 1000 |  | 
8 | Cc1cc(C)c(S(=O)(=O)N(Cc2ccc(-c3ccc(OCC(=O)O)cc3)cc2)Cc2ccc(C(F)(F)F)o2)c(C)c1 [C7/11] | 1000 to 10000 | ia | 100 to 1000 | 100 to 1000 |  | 
9 | Cc1cc(C)c(S(=O)(=O)N(Cc2ccc(C(F)(F)F)o2)C(C)c2ccc(-c3cccc(CC(=O)O)c3)cc2)c(C)c1 (stereo not shown) [Example 2/1] | 1000 to 10000 | ia |  |  | inactive | inactive
10 | Cc1cc(C)c(S(=O)(=O)N(Cc2ccc(N3CCCN(CC(=O)O)C3=O)cc2)Cc2ccc(C(F)(F)F)o2)c(C)c1 [Example 16, 2-(2-Oxo-3-(4-(((2,4,6-trimethyl-N-((5-(trifluoromethyl)furan-2-yl)methyl)phenyl)sulfon-amido)methyl)phenyl)tetrahydropyrimidin-1(2H)-yl)acetic acid] | > 10000 | ia | 1000 to 10000 |  |  | inactive
11 | Cc1cc(C)c(S(=O)(=O)N(Cc2ccc(N3CCCC(CC(=O)O)C3=O)cc2)Cc2ccc(C(F)(F)F)o2)c(C)c1 (stereo not shown) [Example 16/1] | > 10000 | ia | 100 to 1000 | 1000 to 10000 |  | 

The remaining lines, values ahead:

Row | EC50 [1] [nM] | behavior in FRET assay [1] | EC50 [2] [nM] | EC50 [3] [nM] | M2H Gal4β LBD activity range (EC50) [2] | M2H Gal4α LBD activity range (EC50) [3] | Structure (SMILES)
12 | 1000 to 10000 | ia | 100 to 1000 | 100 to 1000 |  |  | Cc1cc(C)c(S(=O)(=O)N(Cc2ccc(-c3cccc(OCC(=O)O)c3)cc2)Cc2ccc(C(F)(F)F)o2)c(C)c1 [5/3]
13 | 100 to 1000 | ia | 100 to 1000 | 100 to 1000 |  |  | Cc1cc(C)c(S(=O)(=O)N(Cc2ccc(-c3cccc(C(F)(F)C(=O)O)c3)cc2)Cc2ccc(C(F)(F)F)o2)c(C)c1 [5/4]
14 | 100 to 1000 | ia | < 100 | < 100 |  |  | Cc1cc(C)c(S(=O)(=O)N(Cc2ccc(-c3cccc(C(C)C(=O)O)c3)cc2)Cc2ccc(C(F)(F)F)o2)c(C)c1 (stereo not shown) [7/4]
15 | 100 to 1000 | ia | < 100 | 100 to 1000 |  |  | Cc1cc(C)c(S(=O)(=O)N(Cc2ccc(-c3cccc(C4(C(=O)O)CC4)c3)cc2)Cc2ccc(C(F)(F)F)o2)c(C)c1 [7/6]
16 | 100 to 1000 | ia | < 100 | 100 to 1000 |  |  | Cc1cc(C)c(S(=O)(=O)N(Cc2ccc(-c3cc(F)cc(C4(C(=O)O)CC4)c3)cc2)Cc2ccc(C(F)(F)F)o2)c(C)c1 [7/7]
17 | > 10000 | ia | 100 to 1000 | 100 to 1000 |  |  | Cc1cc(C)c(S(=O)(=O)N(Cc2ccc(-c3cccc(C4(C(=O)O)CCOCC4)c3)cc2)Cc2ccc(C(F)(F)F)o2)c(C)c1 [7/8]
18 | 1000 to 10000 | ia | 1000 to 10000 | 1000 to 10000 |  |  | Cc1cc(C)c(S(=O)(=O)N(Cc2ccc(-c3cccc([S+]([O-])CC(=O)O)c3)cc2)Cc2ccc(C(F)(F)F)o2)c(C)c1 (stereo not shown) [11/17]
19 | > 10000 | ia | < 100 | 100 to 1000 |  |  | CCOC(=O)Cc1cccc(-c2ccc(CN(Cc3ccc(C(F)(F)F)o3)S(=O)(=O)c3c(C)cc(C)cc3C)cc2)c1 [Example 1]
20 | 1000 to 10000 | ia |  |  | inactive | inactive | Cc1cc(C)c(S(=O)(=O)N(Cc2ccc(-c3cccc(S(=O)(=O)O)c3)cc2)Cc2ccc(C(F)(F)F)o2)c(C)c1 [Example 3, 4′-(((2,4,6-Trimethyl-N-((5-(trifluoromethyl)furan-2-yl)methyl)phenyl)sulfon-amido)methyl)-[1,1′-biphenyl]-3-sulfonic acid]
21 | > 10000 | ia | < 100 | 100 to 1000 |  |  | CC(=O)NS(=O)(=O)c1cccc(-c2ccc(CN(Cc3ccc(C(F)(F)F)o3)S(=O)(=O)c3c(C)cc(C)cc3C)cc2)c1 [Example 3/1]
22 | < 100 | ia | 100 to 1000 | 1000 to 10000 |  |  | COC(=O)CS(=O)(=O)c1cccc(-c2ccc(CN(Cc3ccc(C(F)(F)F)o3)S(=O)(=O)c3c(C)cc(C)cc3C)cc2)c1 [Example 4, Methyl 2-((4′-(((2,4,6-trimethyl-N-((5-(trifluoromethyl)furan-2-yl)methyl)phenyl)sulfon-amido)methyl)-[1,1′-biphenyl]-3-yl)sulfonyl)acetate]
